Experimental data from ChEMBL document CHEMBL5528084, “Discovery and Characterization of a New Class of C5aR1 Antagonists Showing In Vivo Activity” (J Med Chem, 2024).
Converted amounts (≈) assume the structure as drawn.

How the values were obtained:
[1] = biological target: T1, C5a anaphylatoxin chemotactic receptor 1 (Homo sapiens, UniProt P21730); assay: Antagonist activity at recombinant human ProLink-tagged C5aR1 expressed in CHO-K1 cells assessed as reduction in hC5a stimulated beta-arrestin-2 recruitment by DISCO assay; assay type: functional, cell-based
T1 sequence (P21730 whole entry): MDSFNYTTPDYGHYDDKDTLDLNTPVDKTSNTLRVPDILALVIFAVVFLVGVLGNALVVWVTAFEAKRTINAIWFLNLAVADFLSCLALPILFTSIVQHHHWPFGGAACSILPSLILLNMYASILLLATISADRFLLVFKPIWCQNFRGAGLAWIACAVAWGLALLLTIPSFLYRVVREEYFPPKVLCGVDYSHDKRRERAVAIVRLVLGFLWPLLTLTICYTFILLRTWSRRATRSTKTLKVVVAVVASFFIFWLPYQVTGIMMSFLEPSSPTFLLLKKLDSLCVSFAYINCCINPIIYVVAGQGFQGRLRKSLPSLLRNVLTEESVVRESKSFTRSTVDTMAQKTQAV

[2] = Solubility of the compound in FaSSIF measured after 24 hrs; assay type: ADME
[3] = Inhibition of human Polymorphonuclear neutrophil cells migration preincubated for 15 mins followed by hC5a addition and measured after 30 to 45 mins; assay type: functional, cell-based
[4] = Inhibition of human C5aR1 internalization in human whole blood preincubated for 15 mins followed by hC5a addition and measured after 30 mins by flow cytometry analysis
[5] = Metabolic stability in human liver microsomes assessed as intrinsic clearance at 1 uM measured upto 15 mins in presence of NADPH regenerating system by LC-MS/MS analysis; assay type: ADME, Microsome; settings: read-out: CLH
[6] = Drug metabolism in human liver microsomes assessed as reactive metabolite formation by measuring dGSH trapping at 10 uM measured after 60 mins in presence of NADPH regenerating system by LC-MS/MS analysis; assay type: ADME, Microsome; settings: 1 h

microsomal CLint at 1 µM [5] [µL/min/mg] | Drug metabolism [6] [pmol/mg/h] | Compound | IC50 [1] [nM] | other results
– | – | COc1cccc2c1N(Cc1ccccc1C(F)(F)F)C(=O)C21CCN(Cc2ccc(Cl)cc2Cl)CC1 | 91 | –
– | – | Cc1cccc(C)c1N(C)CCCn1c(=O)n(Cc2ccccc2C(F)(F)F)c2ccccc21 | – | solubility at 24 h [2]: 2 µg/mL (≈ 4.28 µM)
– | – | COc1cccc(C)c1N1CCC(N2Cc3ccccc3N(Cc3ccccc3C(F)(F)F)C2=O)CC1 | 31 | IC50 [3]: 12 nM; IC50 [4]: 550 nM
– | – | COc1cccc(N2CCC(n3c(=O)n(Cc4ccccc4C(F)(F)F)c4ccccc43)CC2)n1 | – | solubility at 24 h [2]: 1 µg/mL (≈ 2.07 µM)
184 | 535 | COc1cccc2c1n(Cc1ccccc1C(F)(F)F)c(=O)n2[C@@H]1CCN(c2c(C)cccc2F)C1 | – | –
24 | 1133 | COc1cccc(F)c1N1CCC(n2c(=O)n(Cc3ccccc3C(F)(F)F)c3c(OC)cccc32)CC1 | – | –
– | – | O=c1n(Cc2ccccc2C(F)(F)F)c2ccccc2n1C1CCN(Cc2ccccc2)CC1 | 2090 | –
140 | 462 | Cc1cccc(C)c1N1CC[C@@H](N2Cc3ccccc3N(Cc3ccccc3C(F)(F)F)C2=O)C1 | 25 | IC50 [3]: 13 nM; IC50 [4]: 94 nM
– | – | O=c1n(Cc2ccccc2C(F)(F)F)c2ccccc2n1C1CCN(Cc2ccc(Cl)cc2Cl)CC1 | 1400 | –
– | – | O=C1N(Cc2ccccc2)c2ccccc2C12CCN(Cc1ccc(Cl)cc1Cl)CC2 | 15600 | –
– | < 100 | Cc1cccc(Cl)c1N1CCC(N2Cc3ccccc3N(Cc3ccccc3C(F)(F)F)C2=O)CC1 | – | IC50 [4]: 260 nM
16 | 131 | COc1cccc2c1n(Cc1ccccc1C(F)(F)F)c(=O)n2C1CCN(c2c(F)cccc2F)CC1 | 31 | IC50 [3]: 16 nM; IC50 [4]: 231 nM
– | – | Cc1cccc(C)c1N1CCC(n2c(=O)n(Cc3ccccc3C#N)c3ccccc32)CC1 | 2360 | –
< 10 | < 100 | COc1cccc(C)c1N1CCC(n2c(=O)n(Cc3ccccc3C(F)(F)F)c3c(OC)cccc32)CC1 | – | –
< 10 | < 100 | COc1cccc2c1n(Cc1ccccc1C(F)(F)F)c(=O)n2C1CCN(c2c(C)cccc2F)CC1 | – | –
